In ChEMBL document CHEMBL4831493 (Eur J Med Chem, 2021):
Active and inactive are the calls of the source. The rule behind the calls is not given here.

tested on: Mus musculus; assay: Improvement in learning and spatial memory in amyloid beta (1 to 42)-induced mouse model of Alzheimer's disease at 10 mg/kg/day, po pretreated with amyloid beta42 for 3 days followed by treatment with compound and measured after 9 days measured by Y-maze test; type: functional, organism-based; settings: time 9.0 day

Row | Structure (SMILES) | Activity
1 | COc1cc2c(cc1OC)C(=O)C(CC1CCN(Cc3ccccc3)CC1)C2 (configuration not stated) [DONEPEZIL] | Active

tested on: Mus musculus; assay: Cognitive enhancing effect in mouse model of scopolamine-induced amnesia assessed as decrease in escape latency at 10 mg/kg/day, po measured by Morris water maze test; type: functional, organism-based; settings: not given

Row | Structure (SMILES) | Activity
2 | COc1cc2c(cc1OC)C(=O)C(CC1CCN(Cc3ccccc3)CC1)C2 (configuration not stated) [DONEPEZIL] | Active

target: Glycogen synthase kinase-3 beta (Homo sapiens, UniProt P49841); assay: Inhibition of human recombinant N-terminal His-tagged GSK3beta expressed in Escherichia coli using RRRPASVPPSPSLS RHS(pS)HQRR as substrate incubated for 30 mins in presence of ATP by Kinase-Glo reagent based luminescence assay; settings: not given
Sequence (P49841 whole entry): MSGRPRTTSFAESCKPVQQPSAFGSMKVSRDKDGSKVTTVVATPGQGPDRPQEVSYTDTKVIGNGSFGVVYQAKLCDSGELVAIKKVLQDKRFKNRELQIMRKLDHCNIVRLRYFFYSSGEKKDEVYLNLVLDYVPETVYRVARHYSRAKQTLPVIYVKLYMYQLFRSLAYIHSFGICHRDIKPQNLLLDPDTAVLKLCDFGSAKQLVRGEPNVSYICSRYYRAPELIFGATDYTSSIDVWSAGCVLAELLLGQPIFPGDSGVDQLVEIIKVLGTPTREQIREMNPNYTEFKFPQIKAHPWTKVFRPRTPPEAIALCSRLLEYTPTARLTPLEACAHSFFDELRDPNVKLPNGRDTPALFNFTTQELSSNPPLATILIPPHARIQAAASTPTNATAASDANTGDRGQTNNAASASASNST

Row | Structure (SMILES) | IC50 [nM]
3 | O=C(NCC1CCN(Cc2ccccc2)CC1)c1cncc(NC(=O)c2ccnc(NC(=O)C3CC3)c2)c1 | 305
4 | Cc1ccccc1CN1CCC(CNC(=O)c2cncc(NC(=O)c3ccnc(NC(=O)C4CC4)c3)c2)CC1 | 157
5 | O=C(Nc1cncc(OC2CCN(Cc3ccccc3)CC2)c1)c1ccnc(NC(=O)C2CC2)c1 | 734
6 | O=C(NCC1CCN(Cc2cccc(Cl)c2)CC1)c1cncc(NC(=O)c2ccnc3[nH]ccc23)c1 | > 10000
7 | O=C(CC1CCN(Cc2ccccc2)CC1)Nc1n[nH]c2cc(-c3cccnc3)ccc12 | > 10000
8 | O=C(NCC1CCN(Cc2cccc(Cl)c2)CC1)c1cncc(NC(=O)c2ccnc(NC(=O)C3CC3)c2)c1 | 231
9 | CC(=O)Nc1cc(C(=O)Nc2cncc(OCC3CCN(Cc4ccc(F)cc4)CC3)c2)ccn1 | 3510
10 | Cc1cccc(CN2CCC(CNC(=O)c3cncc(NC(=O)c4ccnc(NC(=O)C5CC5)c4)c3)CC2)c1 | 198
11 | O=C(NCCC1CCN(Cc2cccc(Cl)c2)CC1)c1cncc(NC(=O)c2ccnc(NC(=O)C3CC3)c2)c1 | 152
12 | O=C(Nc1cccc(OCC2CCN(Cc3ccc(F)cc3)CC2)c1)c1ccnc(NC(=O)C2CC2)c1 | > 10000
13 | O=C(CC1CCN(Cc2ccccc2F)CC1)Nc1n[nH]c2cc(-c3cccnc3)ccc12 | > 10000
14 | O=C(NCC1CCN(Cc2ccccc2F)CC1)c1cncc(NC(=O)c2ccnc(NC(=O)C3CC3)c2)c1 | 164
15 | COc1cc2c(cc1OC)C(=O)C(CC1CCN(Cc3ccccc3)CC1)C2 (configuration not stated) [DONEPEZIL] | > 10000
16 | O=C(NCC1CCN(Cc2cccc(F)c2)CC1)c1cncc(NC(=O)c2ccnc(NC(=O)C3CC3)c2)c1 | 97
17 | O=C(NCC1CCN(Cc2ccc(F)c(F)c2)CC1)c1cncc(NC(=O)c2ccnc(NC(=O)C3CC3)c2)c1 | 279
18 | O=C(Nc1cncc(OCC2CCN(Cc3ccccc3F)CC2)c1)c1ccnc(NC(=O)C2CC2)c1 | 77
19 | O=C(NC1CCN(Cc2ccc(F)cc2)CC1)c1cncc(NC(=O)c2ccnc3[nH]ccc23)c1 | 4930
20 | O=C(Nc1cncc(C(=O)NC2CCN(Cc3ccccc3)CC2)c1)c1ccnc(NC(=O)C2CC2)c1 | 81
21 | O=C(Nc1cccc(OCC2CCN(Cc3ccccc3)CC2)c1)c1ccnc(NC(=O)C2CC2)c1 | 9750
22 | O=C(NCC1CCN(Cc2ccc(F)cc2)CC1)c1cncc(NC(=O)c2ccnc(NC(=O)C3CC3)c2)c1 | 244
23 | COc1cccc(CN2CCC(CNC(=O)c3cncc(NC(=O)c4ccnc(NC(=O)C5CC5)c4)c3)CC2)c1 | 126
24 | O=C(NC1CCN(Cc2ccccc2)CC1)c1cncc(NC(=O)c2ccnc3[nH]ccc23)c1 | 6800
25 | CC(=O)Nc1cc(C(=O)Nc2cccc(OCC3CCN(Cc4ccccc4)CC3)c2)ccn1 | > 10000
26 | CC(=O)Nc1cc(C(=O)Nc2cccc(OCC3CCN(Cc4ccc(F)cc4)CC3)c2)ccn1 | > 10000
27 | O=C(Nc1cncc(C(=O)NC2CCN(Cc3cccc(Cl)c3)CC2)c1)c1ccnc(NC(=O)C2CC2)c1 | 63
28 | O=C(NCC1CCN(Cc2ccccc2F)CC1)c1n[nH]c2ccc(-c3cccnc3)cc12 | 79
29 | O=C(CC1CCN(Cc2ccc(F)cc2)CC1)Nc1n[nH]c2cc(-c3cccnc3)ccc12 | > 10000
30 | O=C(NCC1CCN(Cc2ccccc2)CC1)c1n[nH]c2ccc(-c3cccnc3)cc12 | 95
31 | O=C(Nc1cncc(OCC2CCN(Cc3ccccc3)CC2)c1)c1ccnc2[nH]ccc12 | 837
32 | O=C(Nc1cncc(OCC2CCN(Cc3ccccc3Cl)CC2)c1)c1ccnc(NC(=O)C2CC2)c1 | 79

tested on: Mus musculus; assay: Improvement in learning and spatial memory in amyloid beta (1 to 42)-induced mouse model of Alzheimer's disease assessed as increase in spontaneous alteration at 10 mg/kg/day, po pretreated with amyloid beta42 for 3 days followed by treatment with compound and measured after 9 days measured by Y-maze test; type: functional, organism-based; settings: time 9.0 day

Row | Structure (SMILES) | Activity
33 | COc1cc2c(cc1OC)C(=O)C(CC1CCN(Cc3ccccc3)CC1)C2 (configuration not stated) [DONEPEZIL] | Active

target: Acetylcholinesterase (Homo sapiens, UniProt P22303); assay: Inhibition of human recombinant AChE preincubated for 1 min in presence of DNTB followed by addition of acetylthiocholine iodide substrate and measured after 20 mins by Ellman's method; settings: not given
Sequence (P22303 whole entry): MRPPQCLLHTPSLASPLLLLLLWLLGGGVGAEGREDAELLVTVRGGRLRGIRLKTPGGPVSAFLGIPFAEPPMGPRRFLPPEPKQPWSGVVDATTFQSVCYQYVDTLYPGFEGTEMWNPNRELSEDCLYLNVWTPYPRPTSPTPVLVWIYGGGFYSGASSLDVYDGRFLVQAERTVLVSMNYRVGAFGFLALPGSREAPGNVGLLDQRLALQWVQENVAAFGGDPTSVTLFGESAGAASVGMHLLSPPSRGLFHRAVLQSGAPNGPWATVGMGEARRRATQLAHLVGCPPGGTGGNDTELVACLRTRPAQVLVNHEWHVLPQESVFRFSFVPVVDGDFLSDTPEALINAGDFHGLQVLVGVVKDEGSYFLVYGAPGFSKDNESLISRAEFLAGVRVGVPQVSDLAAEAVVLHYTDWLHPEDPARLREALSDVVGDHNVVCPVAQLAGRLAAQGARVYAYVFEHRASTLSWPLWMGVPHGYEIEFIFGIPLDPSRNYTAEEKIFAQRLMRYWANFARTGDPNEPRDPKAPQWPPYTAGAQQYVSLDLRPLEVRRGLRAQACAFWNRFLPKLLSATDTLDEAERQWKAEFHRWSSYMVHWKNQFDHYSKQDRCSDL

Row | Structure (SMILES) | IC50 [µM]
34 | O=C(NCC1CCN(Cc2ccccc2)CC1)c1cncc(NC(=O)c2ccnc(NC(=O)C3CC3)c2)c1 | 1.1
35 | Cc1ccccc1CN1CCC(CNC(=O)c2cncc(NC(=O)c3ccnc(NC(=O)C4CC4)c3)c2)CC1 | 4.09
36 | O=C(Nc1cncc(OC2CCN(Cc3ccccc3)CC2)c1)c1ccnc(NC(=O)C2CC2)c1 | > 10
37 | O=C(NCC1CCN(Cc2cccc(Cl)c2)CC1)c1cncc(NC(=O)c2ccnc3[nH]ccc23)c1 | 1.31
38 | O=C(CC1CCN(Cc2ccccc2)CC1)Nc1n[nH]c2cc(-c3cccnc3)ccc12 | 0.509
39 | O=C(NCC1CCN(Cc2cccc(Cl)c2)CC1)c1cncc(NC(=O)c2ccnc(NC(=O)C3CC3)c2)c1 | 1.09
40 | CC(=O)Nc1cc(C(=O)Nc2cncc(OCC3CCN(Cc4ccc(F)cc4)CC3)c2)ccn1 | 0.009
41 | Cc1cccc(CN2CCC(CNC(=O)c3cncc(NC(=O)c4ccnc(NC(=O)C5CC5)c4)c3)CC2)c1 | 6360
42 | O=C(CC1CCN(Cc2ccccc2F)CC1)Nc1n[nH]c2cc(-c3cccnc3)ccc12 | 0.691
43 | O=C(NCC1CCN(Cc2ccccc2F)CC1)c1cncc(NC(=O)c2ccnc(NC(=O)C3CC3)c2)c1 | 1.76
44 | O=C(NCC1CCN(Cc2cccc(F)c2)CC1)c1cncc(NC(=O)c2ccnc(NC(=O)C3CC3)c2)c1 | 2.39
45 | O=C(NCC1CCN(Cc2ccc(F)c(F)c2)CC1)c1cncc(NC(=O)c2ccnc(NC(=O)C3CC3)c2)c1 | 3.07
46 | O=C(Nc1cncc(OCC2CCN(Cc3ccccc3F)CC2)c1)c1ccnc(NC(=O)C2CC2)c1 | 0.0047
47 | O=C(NC1CCN(Cc2ccc(F)cc2)CC1)c1cncc(NC(=O)c2ccnc3[nH]ccc23)c1 | 0.227
48 | O=C(Nc1cncc(C(=O)NC2CCN(Cc3ccccc3)CC2)c1)c1ccnc(NC(=O)C2CC2)c1 | 0.622
49 | O=C(Nc1cccc(OCC2CCN(Cc3ccccc3)CC2)c1)c1ccnc(NC(=O)C2CC2)c1 | 1.39
50 | O=C(NCC1CCN(Cc2ccc(F)cc2)CC1)c1cncc(NC(=O)c2ccnc(NC(=O)C3CC3)c2)c1 | 3.03
51 | COc1cccc(CN2CCC(CNC(=O)c3cncc(NC(=O)c4ccnc(NC(=O)C5CC5)c4)c3)CC2)c1 | > 10
52 | O=C(NC1CCN(Cc2ccccc2)CC1)c1cncc(NC(=O)c2ccnc3[nH]ccc23)c1 | 0.358
53 | CC(=O)Nc1cc(C(=O)Nc2cccc(OCC3CCN(Cc4ccccc4)CC3)c2)ccn1 | > 10
54 | O=C(Nc1cncc(C(=O)NC2CCN(Cc3cccc(Cl)c3)CC2)c1)c1ccnc(NC(=O)C2CC2)c1 | 2.5
55 | O=C(NCC1CCN(Cc2ccccc2F)CC1)c1n[nH]c2ccc(-c3cccnc3)cc12 | 2.18
56 | O=C(CC1CCN(Cc2ccc(F)cc2)CC1)Nc1n[nH]c2cc(-c3cccnc3)ccc12 | 0.518
57 | O=C(NCC1CCN(Cc2ccccc2)CC1)c1n[nH]c2ccc(-c3cccnc3)cc12 | 1.09
58 | O=C(Nc1cncc(OCC2CCN(Cc3ccccc3)CC2)c1)c1ccnc2[nH]ccc12 | 0.0039
59 | O=C(Nc1cncc(OCC2CCN(Cc3ccccc3Cl)CC2)c1)c1ccnc(NC(=O)C2CC2)c1 | 0.0816

target: Acetylcholinesterase (Electrophorus electricus, UniProt O42275); assay: Inhibition of electric eel recombinant AChE preincubated for 1 min in presence of DNTB followed by addition of acetylthiocholine iodide substrate and measured after 20 mins by Ellman's method; settings: not given
Sequence (O42275 whole entry): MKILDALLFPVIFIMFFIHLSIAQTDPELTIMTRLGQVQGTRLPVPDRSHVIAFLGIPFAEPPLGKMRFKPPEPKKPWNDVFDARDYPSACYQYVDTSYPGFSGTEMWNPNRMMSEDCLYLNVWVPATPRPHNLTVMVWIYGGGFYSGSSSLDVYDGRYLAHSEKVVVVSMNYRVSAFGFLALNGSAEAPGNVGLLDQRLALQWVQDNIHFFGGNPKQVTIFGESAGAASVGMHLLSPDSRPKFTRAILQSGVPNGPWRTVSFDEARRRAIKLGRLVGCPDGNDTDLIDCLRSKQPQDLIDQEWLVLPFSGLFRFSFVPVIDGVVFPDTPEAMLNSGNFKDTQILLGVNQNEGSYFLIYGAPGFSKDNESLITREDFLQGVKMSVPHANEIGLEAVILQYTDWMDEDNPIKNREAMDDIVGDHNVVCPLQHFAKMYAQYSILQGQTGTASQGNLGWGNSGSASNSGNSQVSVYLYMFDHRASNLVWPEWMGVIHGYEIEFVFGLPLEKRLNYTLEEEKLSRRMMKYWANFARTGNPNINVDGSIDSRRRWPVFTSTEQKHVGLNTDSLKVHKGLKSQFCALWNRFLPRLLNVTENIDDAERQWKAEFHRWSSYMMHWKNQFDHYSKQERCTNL

Row | Structure (SMILES) | IC50 [nM]
60 | O=C(NCC1CCN(Cc2ccccc2)CC1)c1cncc(NC(=O)c2ccnc(NC(=O)C3CC3)c2)c1 | 1100
61 | Cc1ccccc1CN1CCC(CNC(=O)c2cncc(NC(=O)c3ccnc(NC(=O)C4CC4)c3)c2)CC1 | 3520
62 | O=C(Nc1cncc(OC2CCN(Cc3ccccc3)CC2)c1)c1ccnc(NC(=O)C2CC2)c1 | 9810
63 | O=C(NCC1CCN(Cc2cccc(Cl)c2)CC1)c1cncc(NC(=O)c2ccnc3[nH]ccc23)c1 | 874
64 | O=C(CC1CCN(Cc2ccccc2)CC1)Nc1n[nH]c2cc(-c3cccnc3)ccc12 | 264
65 | O=C(NCC1CCN(Cc2cccc(Cl)c2)CC1)c1cncc(NC(=O)c2ccnc(NC(=O)C3CC3)c2)c1 | 678
66 | CC(=O)Nc1cc(C(=O)Nc2cncc(OCC3CCN(Cc4ccc(F)cc4)CC3)c2)ccn1 | 16
67 | Cc1cccc(CN2CCC(CNC(=O)c3cncc(NC(=O)c4ccnc(NC(=O)C5CC5)c4)c3)CC2)c1 | 4160
68 | O=C(Nc1cccc(OCC2CCN(Cc3ccc(F)cc3)CC2)c1)c1ccnc(NC(=O)C2CC2)c1 | > 10000
69 | O=C(CC1CCN(Cc2ccccc2F)CC1)Nc1n[nH]c2cc(-c3cccnc3)ccc12 | 390
70 | O=C(NCC1CCN(Cc2ccccc2F)CC1)c1cncc(NC(=O)c2ccnc(NC(=O)C3CC3)c2)c1 | 1720
71 | O=C(NCC1CCN(Cc2cccc(F)c2)CC1)c1cncc(NC(=O)c2ccnc(NC(=O)C3CC3)c2)c1 | 1020
72 | O=C(NCC1CCN(Cc2ccc(F)c(F)c2)CC1)c1cncc(NC(=O)c2ccnc(NC(=O)C3CC3)c2)c1 | 1050
73 | O=C(Nc1cncc(OCC2CCN(Cc3ccccc3F)CC2)c1)c1ccnc(NC(=O)C2CC2)c1 | 10.1
74 | O=C(NC1CCN(Cc2ccc(F)cc2)CC1)c1cncc(NC(=O)c2ccnc3[nH]ccc23)c1 | 406
75 | O=C(Nc1cncc(C(=O)NC2CCN(Cc3ccccc3)CC2)c1)c1ccnc(NC(=O)C2CC2)c1 | 704
76 | O=C(Nc1cccc(OCC2CCN(Cc3ccccc3)CC2)c1)c1ccnc(NC(=O)C2CC2)c1 | 843
77 | O=C(NCC1CCN(Cc2ccc(F)cc2)CC1)c1cncc(NC(=O)c2ccnc(NC(=O)C3CC3)c2)c1 | 1160
78 | COc1cccc(CN2CCC(CNC(=O)c3cncc(NC(=O)c4ccnc(NC(=O)C5CC5)c4)c3)CC2)c1 | 8910
79 | O=C(NC1CCN(Cc2ccccc2)CC1)c1cncc(NC(=O)c2ccnc3[nH]ccc23)c1 | 311
80 | CC(=O)Nc1cc(C(=O)Nc2cccc(OCC3CCN(Cc4ccccc4)CC3)c2)ccn1 | 2200
81 | CC(=O)Nc1cc(C(=O)Nc2cccc(OCC3CCN(Cc4ccc(F)cc4)CC3)c2)ccn1 | > 10000
82 | O=C(Nc1cncc(C(=O)NC2CCN(Cc3cccc(Cl)c3)CC2)c1)c1ccnc(NC(=O)C2CC2)c1 | 951
83 | O=C(NCC1CCN(Cc2ccccc2F)CC1)c1n[nH]c2ccc(-c3cccnc3)cc12 | 718
84 | O=C(CC1CCN(Cc2ccc(F)cc2)CC1)Nc1n[nH]c2cc(-c3cccnc3)ccc12 | 216
85 | O=C(NCC1CCN(Cc2ccccc2)CC1)c1n[nH]c2ccc(-c3cccnc3)cc12 | 552
86 | O=C(Nc1cncc(OCC2CCN(Cc3ccccc3)CC2)c1)c1ccnc2[nH]ccc12 | 2.3
87 | O=C(Nc1cncc(OCC2CCN(Cc3ccccc3Cl)CC2)c1)c1ccnc(NC(=O)C2CC2)c1 | 97.2
